test: ET-1 Assay: Fibroblasts (primary human lung and dermal, HFL-1, 3T3 etc) are seeded in 96-well plates at ~15000 cells/well and serum starved for 0-48 hours. After media exchange, compounds serially diluted in DMSO are added to the cells. After a brief incubation of ~30 min, stimulants (TGFb, serum, LPA etc) are added followed by further incubation for 16-48 hours. Media is then harvested and stored frozen in plate format for later endothelin-1 (ET-1) determination by ELISA. Toxicity measurements are made using the ATPlite kit (Perkin-Elmer). ET-1 is quantified using an ELISA kit (R&D Systems). The amount of ET-1 produced in the assay wells are back-calculated using the ELISA standard. The ability of a compound to inhibit ET-1 production is typically analyzed by fitting dose-response curves to a 4-parameter logistic function to obtain an EC50 value.; settings: HFL1

Compound	EC50
Cc1cc(=O)n(-c2ccc(C(F)(F)F)cc2)cc1-c1ccc(F)cc1	> 200 µM
CC(=O)Nc1cccc(-n2cc(-c3ccccc3)c(C)cc2=O)c1	> 200 µM
Cn1cc(-c2cn(-c3ccc(OC(F)(F)F)cc3)c(=O)cc2NCc2ccccc2)cn1	< 50 µM
Cc1cc(=O)n(-c2ccc(F)cc2)cc1-c1ccc(OC(F)(F)F)cc1	in the range around 125 µM
CC(=O)Nc1cc(=O)n(-c2ccc(OC(F)(F)F)cc2)cc1-c1cnn(C)c1	> 200 µM
Cc1cc(=O)n(-c2ccc(OC(F)(F)F)cc2)cc1-c1ccc(F)c(F)c1	in the range around 125 µM
Cc1cc(=O)n(-c2ccc(OC(F)(F)F)cc2)cc1-c1ccc2c(c1)OCCO2	in the range around 125 µM
Cc1cc(=O)n(-c2ccc(OC(F)(F)F)cc2)cc1-c1cccc(F)c1	< 50 µM
Cc1cc(=O)n(-c2ccccc2)cc1-c1ccc(F)cc1	in the range around 125 µM
Cc1cc(=O)n(-c2cccc(N)c2)cc1-c1ccc(F)cc1	in the range around 125 µM
Cc1cc(=O)n(-c2cccc(OC(F)(F)F)c2)cc1-c1ccccc1	< 50 µM
Cc1cc(=O)n(-c2ccc(OC(F)(F)F)cc2C)cc1-c1ccc(F)cc1	< 50 µM
Cn1cc(-c2cn(-c3ccc(OC(F)(F)F)cc3)c(=O)cc2OCCN2CCCC2=O)cn1	> 200 µM
Cc1cc(=O)n(-c2ccccc2F)cc1-c1ccc(F)cc1	in the range around 125 µM
Cc1cc(=O)n(-c2ccc(OC(F)(F)F)cc2)cc1-c1ccc(F)c(Cl)c1	< 50 µM
Cn1cc(-c2cn(-c3ccc(OC(F)(F)F)cc3)c(=O)cc2N)cn1	> 200 µM
Cn1cc(-c2cn(-c3ccc(OC(F)(F)F)cc3)c(=O)cc2N2CCc3ccccc3C2)cn1	in the range around 125 µM
Cc1cc(=O)n(-c2ccc(OC(F)(F)F)cc2)cc1-c1ccc2c(c1)NC(=O)CO2	< 50 µM
Cn1cc(-c2cn(-c3ccc(OC(F)(F)F)cc3)c(=O)cc2NCCc2ccccc2)cn1	> 200 µM
Cn1cc(-c2cn(-c3ccc(OC(F)(F)F)cc3)c(=O)cc2OCCN2CCOCC2)cn1	> 200 µM
CC(C)c1cc(=O)n(-c2ccc(OC(F)(F)F)cc2)cc1-c1ccc(F)cc1	in the range around 125 µM
Cn1cc(-c2cn(-c3ccc(OC(F)(F)F)cc3)c(=O)cc2OCc2ccccc2)cn1	> 200 µM
CCOc1ccc(-n2cc(-c3ccccc3)c(C)cc2=O)c(C)c1	in the range around 125 µM

Compound	EC50
Cn1cc(-c2cn(-c3ccc(OC(F)(F)F)cc3)c(=O)cc2NCc2cccnc2)cn1	in the range around 125 µM
Cc1cc(=O)n(-c2ccc3c(c2)OCCO3)cc1-c1ccc(F)cc1	> 200 µM
COC(=O)Nc1cc(=O)n(-c2ccc(OC(F)(F)F)cc2)cc1-c1cnn(C)c1	> 200 µM
Cn1cc(-c2cn(-c3ccc(OC(F)(F)F)cc3)c(=O)cc2N2CCOCC2)cn1	< 50 µM
Cn1cc(-c2cn(-c3ccc(OC(F)(F)F)cc3)c(=O)cc2OC2CCS(=O)(=O)CC2)cn1	in the range around 125 µM
CCc1cc(=O)n(-c2ccc(OC(F)(F)F)cc2)cc1-c1ccc(F)cc1	in the range around 125 µM
CNc1cc(=O)n(-c2ccc(OC(F)(F)F)cc2)cc1-c1cnn(C)c1	> 200 µM
Cn1cc(-c2cn(-c3ccc(OC(F)(F)F)cc3)c(=O)cc2NCc2c(F)cccc2F)cn1	in the range around 125 µM
Cc1cc(=O)n(-c2cccc(C(F)(F)F)c2)cc1-c1ccccc1	< 50 µM
CC(C)OC(=O)Nc1cc(=O)n(-c2ccc(OC(F)(F)F)cc2)cc1-c1cnn(C)c1	> 200 µM
Cc1cc(=O)n(-c2ccc(OC(F)(F)F)cc2)cc1-c1cccc2c1OCCO2	< 50 µM
Cc1cc(=O)n(-c2ccc(OC(F)(F)F)cc2)cc1-c1ccc2c(c1)OCO2	in the range around 125 µM
CN(Cc1ccccc1)c1cc(=O)n(-c2ccc(OC(F)(F)F)cc2)cc1-c1cnn(C)c1	< 50 µM
Cc1cc(=O)n(-c2ccc(Cl)cc2C)cc1-c1ccccc1	in the range around 125 µM
Cc1cc(=O)n(-c2cccc(OC(F)(F)F)c2)cc1-c1ccc(F)cc1	< 50 µM
Cc1cc(=O)n(-c2ccc(OC(F)(F)F)cc2)cc1-c1cccc2c1OC(C)(C)O2	in the range around 125 µM
Cn1cc(-c2cn(-c3ccc(OC(F)(F)F)cc3)c(=O)cc2Oc2cc(Cl)cc(C#N)c2)cn1	> 200 µM
Cc1cc(=O)n(-c2ccc(OC(F)(F)F)cc2)cc1-c1ccc(Cl)c(F)c1	in the range around 125 µM
CCOc1ccc(-n2cc(-c3cccc(F)c3)c(C)cc2=O)c(C)c1	in the range around 125 µM
Cc1cc(=O)n(-c2ccc(OC(F)(F)F)cc2)cc1-c1cn[nH]c1	< 50 µM
CNC(=O)c1cccc(-n2cc(-c3ccc(F)cc3)c(C)cc2=O)c1	in the range around 125 µM
Cn1cc(-c2cn(-c3ccc(OC(F)(F)F)cc3)c(=O)cc2OCCN2CCS(=O)(=O)CC2)cn1	> 200 µM
Cc1cc(=O)n(-c2ccc(OC(F)(F)F)cc2)cc1-c1ccc(Cl)c(Cl)c1	in the range around 125 µM

Compound	EC50
Cn1cc(-c2cn(-c3ccc(OC(F)(F)F)cc3)c(=O)cc2Oc2ccccc2)cn1	< 50 µM
Cc1cc(=O)n(-c2ccc(OC(F)(F)F)cc2)cc1-c1ccccc1	< 50 µM
Cc1cc(=O)n(-c2ccc(OC(F)(F)F)cc2)cc1-c1cccc2c1OCO2	< 50 µM
CCOc1ccc(Oc2cc(=O)n(-c3ccc(OC(F)(F)F)cc3)cc2-c2cnn(C)c2)cc1C#N	< 50 µM
Cc1cc(=O)n(-c2cccc(C(F)(F)F)c2)cc1-c1ccc(F)cc1	in the range around 125 µM
Cc1cc(=O)n(-c2ccc(OC(F)(F)F)cc2)cc1-c1ccc(F)cc1	> 200 µM
Cc1cc(=O)n(-c2ccccc2C)cc1-c1ccc(F)cc1	in the range around 125 µM
Cc1cc(=O)n(-c2ccc3c(c2)OCO3)cc1-c1ccc(F)cc1	> 200 µM
Cc1ccc(-n2cc(-c3ccc(F)cc3)c(C)cc2=O)cc1	in the range around 125 µM
Cc1cc(=O)n(-c2cccc(C(N)=O)c2)cc1-c1ccc(F)cc1	> 200 µM
O=c1cc(C(F)(F)F)c(-c2ccc(F)cc2)cn1-c1ccc(OC(F)(F)F)cc1	in the range around 125 µM
Cn1cc(-c2cn(-c3ccc(OC(F)(F)F)cc3)c(=O)cc2OCCN2CCOCC2=O)cn1	in the range around 125 µM
CC(=O)Nc1cccc(-n2cc(-c3ccc(F)cc3)c(C)cc2=O)c1	> 200 µM
Cn1cc(-c2cn(-c3ccc(OC(F)(F)F)cc3)c(=O)cc2N2CCCCC2)cn1	> 200 µM
CCCCOC(=O)Nc1cc(=O)n(-c2ccc(OC(F)(F)F)cc2)cc1-c1cnn(C)c1	in the range around 125 µM
Cn1cc(-c2cn(-c3ccc(OC(F)(F)F)cc3)c(=O)cc2NCc2c(Cl)cccc2Cl)cn1	> 200 µM
Cc1cc(=O)n(-c2cccc(NC(N)=O)c2)cc1-c1ccc(F)cc1	< 50 µM
Cc1cc(=O)n(-c2ccc(OC(F)(F)F)cc2)cc1-c1ccc2c(c1)N(C)C(=O)CO2	< 50 µM
Cn1cc(-c2cn(-c3ccc(OC(F)(F)F)cc3)c(=O)cc2NCc2ccccn2)cn1	< 50 µM
Cc1cc(=O)n(-c2cccc3c2OCO3)cc1-c1ccc(F)cc1	in the range around 125 µM
Cc1cc(=O)n(-c2cccc3c2OCCO3)cc1-c1ccc(F)cc1	in the range around 125 µM
Cc1cc(=O)n(-c2ccc(OC(F)(F)F)cc2)cc1-c1ccc2c(c1)OC(F)(F)O2	in the range around 125 µM
Cc1cc(=O)n(-c2ccc(OC(F)(F)F)cc2)cc1-c1ccc2c(c1)OC(C)(C)O2	> 200 µM

Compound	EC50
CC(=O)Nc1cccc(-n2cc(-c3cn[nH]c3)c(C)cc2=O)c1	> 200 µM
COCCOc1cc(=O)n(-c2ccc(OC(F)(F)F)cc2)cc1-c1cnn(C)c1	> 200 µM
Cn1cc(-c2cn(-c3ccc(OC(F)(F)F)cc3)c(=O)cc2NC(=O)OCc2ccccc2)cn1	in the range around 125 µM
Cn1cc(-c2cn(-c3ccc(OC(F)(F)F)cc3)c(=O)cc2OCCN2CCCC2)cn1	in the range around 125 µM
COc1ccc(CNc2cc(=O)n(-c3ccc(OC(F)(F)F)cc3)cc2-c2cnn(C)c2)cc1	< 50 µM
Cc1cc(=O)n(-c2ccc(C(F)(F)F)cc2)cc1-c1ccccc1	< 50 µM
Cn1cc(-c2cn(-c3ccc(OC(F)(F)F)cc3)c(=O)cc2C(=O)O)cn1	> 200 µM
Cc1cc(=O)n(-c2ccc(OC(F)(F)F)cc2)cc1-c1ccccc1F	< 50 µM
Cn1cc(-c2cn(-c3ccc(OC(F)(F)F)cc3)c(=O)cc2Nc2ccccc2)cn1	> 200 µM
Cc1cc(=O)n(-c2ccc(OC(F)(F)F)cc2)cc1-c1ccc(-c2cncs2)cc1	in the range around 125 µM
CCCNC(=O)c1cc(=O)n(-c2ccc(OC(F)(F)F)cc2)cc1-c1cnn(C)c1	> 200 µM
CN1CCC(Oc2cc(=O)n(-c3ccc(OC(F)(F)F)cc3)cc2-c2cnn(C)c2)CC1	< 50 µM
CN1CCN(CCOc2cc(=O)n(-c3ccc(OC(F)(F)F)cc3)cc2-c2cnn(C)c2)CC1	in the range around 125 µM
CCOc1ccc(-n2cc(-c3cnn(C)c3)c(OC)cc2=O)c(C)c1	< 50 µM
COc1ccc(CN(C)c2cc(=O)n(-c3ccc(OC(F)(F)F)cc3)cc2-c2cnn(C)c2)cc1	in the range around 125 µM
Cc1cc(=O)n(-c2ccccc2)cc1-c1ccccc1	in the range around 125 µM
Cc1cc(=O)n(-c2ccc(Cl)cc2)cc1-c1ccc(F)cc1	> 200 µM
COc1cc(-n2cc(-c3ccc(F)cc3)c(C)cc2=O)cc(OC)c1OC	in the range around 125 µM
CCOc1ccc(Oc2cc(=O)n(-c3ccc(OC(F)(F)F)cc3)cc2-c2cnn(C)c2)cc1C	> 200 µM
CCOc1ccc(-n2cc(-c3ccc(F)cc3)c(C)cc2=O)c(C)c1	in the range around 125 µM
Cc1cc(=O)n(-c2ccccc2F)cc1-c1ccccc1	in the range around 125 µM
Cc1cc(=O)n(-c2ccc(OC(F)(F)F)cc2)cc1-c1cccc(Cl)c1	in the range around 125 µM
CCOC(=O)Nc1cc(=O)n(-c2ccc(OC(F)(F)F)cc2)cc1-c1cnn(C)c1	> 200 µM
